Source: ChEMBL document CHEMBL5518215, “Unlocking Antibacterial Potential: Key-Site-Based Regulation of Antibacterial Spectrum of Peptides” (J Med Chem, 2024)

Assays:
Escherichia coli [1] = experiment: Antimicrobial activity against Escherichia coli 25922 assessed as absence bacterial growth measured after 18 to 24 hrs incubation in presence of 12.5% serum by NCCLS method; type: functional; conditions: time 18-24 hrs
[2] = Cytotoxicity against human HEK-293T cells assessed as cell survival rate at 64 uM measured after 8 hrs by MTT assay relative to control; type: toxicity, cell-based; conditions: read-out: Activity
Escherichia coli [3] = experiment: Antimicrobial activity against Escherichia coli 25922 assessed as absence bacterial growth measured after 18 to 24 hrs incubation in presence of 50% serum by NCCLS method; type: functional; conditions: time 18-24 hrs
[4] = tested on: Staphylococcus epidermidis; experiment: Antimicrobial activity against Staphylococcus epidermidis 12228 assessed as bacterial killing measured after 16 hrs incubation; type: functional
Listeria monocytogenes [5] = experiment: Antimicrobial activity against Listeria monocytogenes 1.10753 assessed as absence bacterial growth measured after 18 to 24 hrs incubation by NCCLS method; type: functional; conditions: time 18-24 hrs
[6] = Cytotoxicity against mouse RAW264.7 cells assessed as cell survival rate measured after 8 hrs by MTT assay; type: toxicity, cell-based
Escherichia coli [7] = experiment: Antimicrobial activity against Escherichia coli 25922 assessed as absence bacterial growth measured after 18 to 24 hrs incubation in presence of 25% serum by NCCLS method; type: functional; conditions: time 18-24 hrs
Salmonella typhimurium [8] = experiment: Antimicrobial activity against Salmonella typhimurium 14028 assessed as absence bacterial growth measured after 18 to 24 hrs incubation by NCCLS method; type: functional, Salmonella enterica subsp. enterica serovar Typhimurium; conditions: Salmonella enterica, time 18-24 hrs
Escherichia coli [9] = experiment: Antimicrobial activity against Escherichia coli 25922 assessed as absence bacterial growth measured after 18 to 24 hrs incubation in presence of MgCl2 by NCCLS method; type: functional; conditions: time 18-24 hrs
Staphylococcus aureus [10] = experiment: Antimicrobial activity against Staphylococcus aureus 29213 assessed as absence bacterial growth measured after 18 to 24 hrs incubation by NCCLS method; type: functional; conditions: time 18-24 hrs
Escherichia coli [11] = experiment: Antimicrobial activity against Escherichia coli 25922 assessed as absence bacterial growth measured after 18 to 24 hrs incubation in presence of FeCl3 by NCCLS method; type: functional; conditions: time 18-24 hrs
Erythrocyte = experiment: Hemolytic activity in human RBC at effective concentration measured after 1 hr by microplate reader analysis; type: toxicity, cell-based
Bacillus cereus [12] = experiment: Antimicrobial activity against Bacillus cereus 1.932 assessed as bacterial killing measured after 16 hrs incubation; type: functional
Acinetobacter baumannii [13] = experiment: Antimicrobial activity against Acinetobacter baumannii 1.6769 assessed as bacterial killing measured after 16 hrs incubation; type: functional
Pseudomonas aeruginosa [14] = experiment: Antimicrobial activity against Pseudomonas aeruginosa 27853 assessed as bacterial killing measured after 16 hrs incubation; type: functional
[15] = tested on: Staphylococcus epidermidis; experiment: Antimicrobial activity against Staphylococcus epidermidis 12228 assessed as absence bacterial growth measured after 18 to 24 hrs incubation by NCCLS method; type: functional; conditions: time 18-24 hrs
Bacillus cereus [16] = experiment: Antimicrobial activity against Bacillus cereus 1.932 assessed as absence bacterial growth measured after 18 to 24 hrs incubation by NCCLS method; type: functional; conditions: time 18-24 hrs
Escherichia coli [17] = experiment: Antimicrobial activity against Escherichia coli 25922 assessed as absence bacterial growth measured after 18 to 24 hrs incubation in presence of KCl by NCCLS method; type: functional; conditions: time 18-24 hrs
[18] = Cytotoxicity against porcine IPEC-J2 cells assessed as cell survival rate at 64 uM measured after 8 hrs by MTT assay relative to control; type: toxicity, cell-based, Sus scrofa; conditions: pig, read-out: Activity
[19] = Antimicrobial activity against Salmonella pullorum C7913 assessed as bacterial killing measured after 16 hrs incubation; type: functional, Salmonella enterica subsp. enterica serovar Pullorum; conditions: Salmonella enterica
Escherichia coli [20] = experiment: Antimicrobial activity against Escherichia coli 25922 assessed as absence bacterial growth measured after 18 to 24 hrs incubation in presence of NaCl by NCCLS method; type: functional; conditions: time 18-24 hrs
Salmonella typhimurium [21] = experiment: Antimicrobial activity against Salmonella typhimurium 14028 assessed as bacterial killing measured after 16 hrs incubation; type: functional, Salmonella enterica subsp. enterica serovar Typhimurium; conditions: Salmonella enterica
Staphylococcus aureus [22] = experiment: Antimicrobial activity against Staphylococcus aureus 29213 assessed as absence bacterial growth measured after 18 to 24 hrs incubation by NCCLS m; type: functional; conditions: time 18-24 hrs
Escherichia coli [23] = experiment: Antimicrobial activity against Escherichia coli 25922 assessed as absence bacterial growth measured after 18 to 24 hrs incubation by NCCLS method; type: functional; conditions: time 18-24 hrs
[24] = Cytotoxicity against human HEK-293T cells assessed as cell survival rate measured after 8 hrs by MTT assay; type: toxicity, cell-based
Acinetobacter baumannii [25] = experiment: Antimicrobial activity against Acinetobacter baumannii 1.6769 assessed as absence bacterial growth measured after 18 to 24 hrs incubation by NCCLS method; type: functional; conditions: time 18-24 hrs
Salmonella typhimurium [26] = experiment: Antimicrobial activity against Salmonella typhimurium C7731 assessed as bacterial killing measured after 16 hrs incubation; type: functional, Salmonella enterica subsp. enterica serovar Typhimurium; conditions: Salmonella enterica
[27] = Cytotoxicity against porcine IPEC-J2 cells assessed as cell survival rate measured after 8 hrs by MTT assay; type: toxicity, cell-based, Sus scrofa; conditions: pig
Staphylococcus aureus [28] = experiment: Antimicrobial activity against Methicillin-resistant Staphylococcus aureus 43300 assessed as bacterial killing measured after 16 hrs incubation; type: functional
Escherichia coli [29] = experiment: Antimicrobial activity against Escherichia coli 25922 assessed as bacterial killing measured after 16 hrs incubation; type: functional
Staphylococcus aureus [30] = experiment: Antimicrobial activity against Staphylococcus aureus 29213 assessed as bacterial killing measured after 16 hrs incubation; type: functional
[31] = Antimicrobial activity against Salmonella pullorum C7913 assessed as absence bacterial growth measured after 18 to 24 hrs incubation by NCCLS method; type: functional, Salmonella enterica subsp. enterica serovar Pullorum; conditions: Salmonella enterica, time 18-24 hrs
Escherichia coli [32] = experiment: Antimicrobial activity against Escherichia coli 25922 assessed as absence bacterial growth measured after 18 to 24 hrs incubation in presence of ZnCl2 by NCCLS method; type: functional; conditions: time 18-24 hrs
Escherichia coli [33] = experiment: Antimicrobial activity against Escherichia coli 25922 assessed as absence bacterial growth measured after 18 to 24 hrs incubation in presence of NH4Cl by NCCLS method; type: functional; conditions: time 18-24 hrs
Staphylococcus aureus [34] = experiment: Antimicrobial activity against Staphylococcus aureus 25923 assessed as bacterial killing measured after 16 hrs incubation; type: functional
Salmonella typhimurium [35] = experiment: Antimicrobial activity against Salmonella typhimurium C7731 assessed as absence bacterial growth measured after 18 to 24 hrs incubation by NCCLS method; type: functional, Salmonella enterica subsp. enterica serovar Typhimurium; conditions: Salmonella enterica, time 18-24 hrs
Escherichia coli [36] = experiment: Antimicrobial activity against Escherichia coli K88 assessed as bacterial killing measured after 16 hrs incubation; type: functional
[37] = Hemolytic activity in human RBC at effective concentration at 128 uM measured after 1 hr by microplate reader relative to control; type: toxicity, cell-based, Erythrocyte; conditions: human red blood cells (erythrocytes), read-out: Activity
Listeria monocytogenes [38] = experiment: Antimicrobial activity against Listeria monocytogenes 1.10753 assessed as bacterial killing measured after 16 hrs incubation; type: functional
Enterococcus faecalis [39] = experiment: Antimicrobial activity against Enterococcus faecalis 29212 assessed as bacterial killing measured after 16 hrs incubation; type: functional
Staphylococcus aureus [40] = experiment: Antimicrobial activity against Methicillin-resistant Staphylococcus aureus 43300 assessed as absence bacterial growth measured after 18 to 24 hrs incubation by NCCLS method; type: functional; conditions: time 18-24 hrs
Enterococcus faecalis [41] = experiment: Antimicrobial activity against Enterococcus faecalis 29212 assessed as absence bacterial growth measured after 18 to 24 hrs incubation by NCCLS method; type: functional; conditions: time 18-24 hrs
Pseudomonas aeruginosa [42] = experiment: Antimicrobial activity against Pseudomonas aeruginosa 27853 assessed as absence bacterial growth measured after 18 to 24 hrs incubation by NCCLS method; type: functional; conditions: time 18-24 hrs
Escherichia coli [43] = experiment: Antimicrobial activity against Escherichia coli K88 assessed as absence bacterial growth measured after 18 to 24 hrs incubation by NCCLS method; type: functional; conditions: time 18-24 hrs

Substance H-GKLWLKGGKLWLKAGKLWLKG-NH2 has an MIC (Escherichia coli [1]) of 16 µM, a viability at 8 h, 64 µM [2] of over 80% and an MIC (Escherichia coli [3]) of over 32 µM. It also gave an MBC [4] of 8 µM, an MIC (Listeria monocytogenes [5]) of over 32 µM and an IC50 at 8 h [6] of over 64 µM. For the same substance, the MIC (Escherichia coli [7]) was 32 µM, the MIC (Salmonella typhimurium [8]) was 4 µM and the MIC (Escherichia coli [9]) was 8 µM. The MIC (Staphylococcus aureus [10]) was 8 µM, the MIC (Escherichia coli [11]) was 2 µM and the HC10 (Erythrocyte) was over 128 µM. The MBC (Bacillus cereus [12]) was 4 µM, the MBC (Acinetobacter baumannii [13]) was 4 µM and the MBC (Pseudomonas aeruginosa [14]) was 8 µM. The MIC [15] was 4 µM, the MIC (Bacillus cereus [16]) was 4 µM and the MIC (Escherichia coli [17]) was 2 µM. The viability at 8 h, 64 µM [18] was over 80%, the MBC [19] was 2 µM and the MIC (Escherichia coli [20]) was 16 µM. It also gave an MBC (Salmonella typhimurium [21]) of 4 µM, an MIC (Staphylococcus aureus [22]) of 4 µM and an MIC (Escherichia coli [23]) of 2 µM. The IC50 at 8 h [24] was over 64 µM, the MIC (Acinetobacter baumannii [25]) was 2 µM and the MBC (Salmonella typhimurium [26]) was 8 µM. For the same substance, the IC50 at 8 h [27] was 54.1 µM, the MBC (Staphylococcus aureus [28]) was 4 µM and the MBC (Escherichia coli [29]) was 4 µM. For the same substance, the MBC (Staphylococcus aureus [30]) was 8 µM, the MIC [31] was 2 µM and the MIC (Escherichia coli [32]) was 1 µM. For the same substance, the MIC (Escherichia coli [33]) was 2 µM, the MBC (Staphylococcus aureus [34]) was 8 µM and the MIC (Salmonella typhimurium [35]) was 4 µM. It also gave an MBC (Escherichia coli [36]) of 1 µM, a hemolysis at 1 h, 128 µM [37] of under 10% and an MBC (Listeria monocytogenes [38]) of over 32 µM. For the same substance, the MBC (Enterococcus faecalis [39]) was 16 µM, the MIC (Staphylococcus aureus [40]) was 4 µM and the MIC (Enterococcus faecalis [41]) was 8 µM. For the same substance, the MIC (Pseudomonas aeruginosa [42]) was 4 µM and the MIC (Escherichia coli [43]) was 1 µM.
